Experimental data from US20020037328A1, “Hexitol compositions and uses thereof” (priority 2000, published 2002).

Test system: murine fibrosarcomas (RIF-1 cells)
Test: Tumor growth delay (tumor volume quadrupling time) of RIF-1 fibrosarcomas in C3H mice
Format: in vivo
Details: Dianhydrogalactitol 10 mg/kg, Cisplatin 4 mg/kg; for Delay (median TVQT of treated group minus control group) / TVQT/CTVQT (ratio of TVQT of treated tumor over untreated control) / Median (TVQT): RIF-1 tumors in C3H mice, i.p., combination 10 → 4 mg/kg (30 min apart); for TVQT/CTVQT (ratio of TVQT of treated tumor over untreated control): control 1.0; for Median (TVQT): control 6.3; for Mean TVQT ± S.E. (tumor volume quadrupling time): RIF-1 tumors intradermal in female C3H mice, single i.p. injection, combination 10 → 4 mg/kg (cisplatin 30 min after dianhydrogalactitol), 4 mice per group, untreated control 6.3 ± 0.3
Procedure: Transplantable experimental murine fibrosarcomas (2×10^5 RIF-1 cells) were grown intradermally in the flanks of 3 month old female C3H mice (Charles River, Hollister, Calif.). When the tumors reached a volume of approximately 100 mm^3, the mice were randomly assigned to each experimental group (4 mice per group).
The experimental compositions were prepared as described in Table 1.
Dianhydrogalactitol was obtained from NCI and was made to the appropriate concentration in DMSO. Cisplatin (David Bull Laboratories- Mulgrave, Australia, lot. 5201844x) was made to the appropriate concentration in water for injection. The compositions were injected systemically (i.e., intraperitoneally, i.p.), in a volume of 100 microliters. For the treatment of group 3, dianhydrogalactitol, was injected 30 minutes prior to the injection of cisplatin. After treatment, the growth of the tumors was monitored three times per week by caliper measurements of three perpendicular diameters of the tumor and calculation of tumor volume from the formula: […]
where D1-3 are the diameters in mm of the three perpendicular axes.
The tumors were followed until they reached a size of four times their day zero treatment volume (TVQT), or up to 30 days after treatment, whichever came first. The data is expressed as the “tumor volume quadrupling time” (TVQT) mean and as the “delay.” Mean TVQT is the mean days required for individual tumors to grow to four times the tumor volume at the initial treatment day. The “delay” is the median of days required for a tumor to grow to four times the mean size of the treated group, minus the median of days required to grow to four times the mean size of the control group. The data is also expressed as the ratio of the tumor volume quadrupling time of the treated tumor over the untreated control group (TVQT/CTVQT). Increasing values of this ratio indicate increased antitumor response.

Compound | Delay (median TVQT of treated group minus control group) | TVQT/CTVQT (ratio of TVQT of treated tumor over untreated control) | Median (TVQT) | Mean TVQT ± S.E. (tumor volume quadrupling time)
N.N.[Cl][Pt][Cl] [Cisplatin, cis-diamminedichloroplatinum II] | 1.45 days | 1.2 | 7.7 days | 7.4 ± 0.3 days
OC(C1CO1)C(O)C1CO1 (centres unmarked) [Dianhydrogalactitol, 1,2:5,6-Dianhydrogalactitol] | 5.12 days | 1.7 | 11.4 days | 10.9 ± 0.8 days
